These results are taken from ChEMBL document CHEMBL1127398, “(-)-11-Hydroxy-7'-isothiocyanato-1',1'-dimethylheptyl-delta 8-THC: a novel, high-affinity irreversible probe for the cannabinoid receptor in the brain” (J Med Chem, 1994).

This test has as its target Cannabinoid receptor (Rattus norvegicus, UniProt Q9QZN9+P20272). Kind of test: Tested for affinity of compound against cannabinoid receptor in rat forebrain membranes. Type of test: cell membranes, Membrane.

The IC50 is the point on the concentration scale where inhibition reaches its midpoint. The compound `CCc1cc(C(C)(C)CCCCCCN=C=S)cc2c1[C@@H]1CC(CO)=CC[C@H]1C(C)(C)O2` yielded an IC50 of 1.6 nM.

`CC1=CC2c3c(O)cc(CCCCN=[N+]=[N-])cc3OC(C)(C)[C@H]2CC1` (some centres not stated) displayed a half-maximal inhibitory concentration (IC50) of 31 nM.
